{
  "source": "ChEMBL document CHEMBL4265956",
  "about": "“Discovery of potent and selective Spleen Tyrosine Kinase inhibitors for the topical treatment of inflammatory skin disease” (Bioorg Med Chem Lett, 2018);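 as to logD: lipophilicity determined by HPLC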",
  "data": [
    {"assay": "Drug uptake in human skin epidermal layer administered topically after 6 hrs by LC-MS/MS analysis", "type": "ADME, tissue-based, Skin epidermis", "settings": "topical_or_ocular", "units": {"Drug uptake": "µg"}, "values": [
      {"smiles": "CC(=O)c1ccc(OCc2cc(C)ccn2)c(-c2ccc3c(c2)CCNCC3)c1", "Drug uptake": 5.52},
      {"smiles": "COc1cccc(OCc2cc(C)ccn2)c1-c1ccc2c(c1)CCNCC2", "Drug uptake": 9.34}
    ]},
    {"assay": "Drug uptake in human skin dermal layer administered topically after 6 hrs by LC-MS/MS analysis", "type": "ADME, tissue-based, Dermis", "settings": "topical_or_ocular", "units": {"Drug uptake": "µg"}, "values": [
      {"smiles": "CC(=O)c1ccc(OCc2cc(C)ccn2)c(-c2ccc3c(c2)CCNCC3)c1", "Drug uptake": 0.43},
      {"smiles": "COc1cccc(OCc2cc(C)ccn2)c1-c1ccc2c(c1)CCNCC2", "Drug uptake": 0.38}
    ]},
    {"assay": "physchem", "settings": "buffer, pH 7.4", "values": [
      {"smiles": "COc1cccc(-c2cc(C(C)=O)ccc2OCc2ccccn2)c1", "logD": 5.4},
      {"smiles": "COc1cccc(OCc2cnccn2)c1-c1ccc2c(c1)CCNCC2", "logD": 2.2},
      {"smiles": "COc1ccc(-c2cc(C(C)=O)ccc2OCc2ncccn2)cc1", "logD": 4.5},
      {"smiles": "CC(=O)c1ccc(OCc2ccccn2)c(-c2ccc(CCN)cc2)c1", "logD": 2.1},
      {"smiles": "COc1ccc(-c2nc(C)ccc2OCc2ccccn2)cc1", "logD": 5},
      {"smiles": "COc1ccc(-c2nc(C)ccc2OCc2ccc(C)cn2)cc1", "logD": 5.5},
      {"smiles": "COc1ccc(-c2cc(C)ccc2OCc2ccccn2)cc1", "logD": 6.8},
      {"smiles": "CC(=O)c1ccc(OCc2ccccn2)c(-c2ccc3c(c2)CNCC3)c1", "logD": 2.2},
      {"smiles": "COc1ccc(-c2cc(F)ccc2OCc2ccccn2)cc1", "logD": 6.4},
      {"smiles": "CC(=O)c1ccc(OCc2ccccn2)c(-c2ccc3c(c2)CCNCC3)c1", "logD": 2.3},
      {"smiles": "COc1ccc(-c2cc(C(C)=O)ccc2OCc2ccncn2)cc1", "logD": 4.5},
      {"smiles": "COc1ccc(OCc2cc(C)ccn2)c(-c2ccc3c(c2)CCNCC3)c1", "logD": 3},
      {"smiles": "COc1ccc(-c2cc(OC)ccc2OCc2ccccn2)cc1", "logD": 6},
      {"smiles": "CC(=O)c1ccc(OCc2ccccn2)c(-c2ccc3c(c2)CCNC3)c1", "logD": 2.1},
      {"smiles": "COc1ccc(-c2nc(C)ccc2OCc2cc(C)ccn2)cc1", "logD": 5.4},
      {"smiles": "CCc1ccnc(COc2ccc(C(C)=O)cc2-c2ccc3c(c2)CCNCC3)c1", "logD": 2.8},
      {"smiles": "COc1ccc(-c2cc(C(C)=O)ccc2OCc2ccccn2)cc1", "logD": 5.3},
      {"smiles": "CNC(=O)c1ccc(OCc2cc(C)ccn2)c(-c2ccc3c(c2)CCNCC3)c1", "logD": 1.9},
      {"smiles": "COc1ccc(-c2ccc(OC)cc2OCc2ccccn2)cc1", "logD": 6.2},
      {"smiles": "COc1ccc(-c2ccccc2OCc2ccccn2)cc1", "logD": 6.2},
      {"smiles": "CCOc1ccnc(COc2ccc(C(C)=O)cc2-c2ccc3c(c2)CCNCC3)c1", "logD": 2.7},
      {"smiles": "COc1ccc(-c2nc(C)ccc2OCc2cccc(C)n2)cc1", "logD": 5.5},
      {"smiles": "Cc1ccc(-c2ncccc2OCc2ccccn2)cc1", "logD": 4.9},
      {"smiles": "CC(=O)c1ccc(OCc2ccccn2)c(-c2ccc(CN)cc2)c1", "logD": 1.9},
      {"smiles": "CC(=O)c1ccc(OCc2cc(C)ccn2)c(-c2ccc3c(c2)CCNCC3)c1", "logD": 2.5},
      {"smiles": "CC(=O)c1ccc(OCc2ccccn2)c(-c2cccc(C)c2)c1", "logD": 6},
      {"smiles": "COc1ccc(-c2ccc(F)cc2OCc2ccccn2)cc1", "logD": 6.6},
      {"smiles": "COc1ccc(-c2cc(C(C)=O)ccc2OCc2cnccn2)cc1", "logD": 4.7},
      {"smiles": "CC(=O)c1ccc(OCc2ccccn2)c(-c2ccc(C)cc2)c1", "logD": 6.1},
      {"smiles": "COc1ccc(-c2cc(C(C)=O)ccc2OCc2cccnn2)cc1", "logD": 4.1},
      {"smiles": "COc1ccc(-c2nc(C)ccc2OCc2ncccc2C)cc1", "logD": 5.3},
      {"smiles": "COc1ccc(-c2ccc3c(c2)CCNCC3)c(OCc2cc(C)ccn2)c1", "logD": 3},
      {"smiles": "CC(=O)c1ccc(OCc2ccccn2)c(-c2ccc3c(c2)CNCCC3)c1", "logD": 2.3},
      {"smiles": "CC(=O)c1ccc(OCc2ccccn2)c(-c2ccc3c(c2)CNC3)c1", "logD": 2.1},
      {"smiles": "COc1ccc(-c2c(C)cccc2OCc2ccccn2)cc1", "logD": 6.7},
      {"smiles": "CC(=O)c1ccc(OCc2ccccn2)c(-c2ccc(F)cc2)c1", "logD": 5.6},
      {"smiles": "COc1cccc(OCc2cc(C)ccn2)c1-c1ccc2c(c1)CCNCC2", "logD": 3.1},
      {"smiles": "COc1ccc(-c2c(F)cccc2OCc2ccccn2)cc1", "logD": 6.2},
      {"smiles": "COc1ccc(-c2c(OC)cccc2OCc2ccccn2)cc1", "logD": 5.8},
      {"smiles": "CC(=O)c1ccc(OCc2ccccn2)c(-c2ccc3c(c2)CCCNC3)c1", "logD": 2.3},
      {"smiles": "Cc1ccnc(COc2ccc(C#N)cc2-c2ccc3c(c2)CCNCC3)c1", "logD": 2.8},
      {"smiles": "CC(=O)c1ccc(OCc2ccccn2)c(-c2ccccc2)c1", "logD": 5},
      {"smiles": "Cc1ccc(-c2ccccc2OCc2ccccn2)cc1", "logD": 7}
    ]},
    {"assay": "Apparent permeability of the compound after 3 hrs by PAMPA", "type": "ADME", "settings": "not given", "units": {"Papp at 3 h": "×10⁻⁶ cm/s"}, "values": [
      {"smiles": "COc1ccc(-c2nc(C)ccc2OCc2cc(C)ccn2)cc1", "Papp at 3 h": 33},
      {"smiles": "Cc1ccnc(COc2ccc(C)nc2-c2ccc3c(c2)CCNCC3)c1", "Papp at 3 h": 43.5}
    ]}
  ]
}
